Test system: SMARTCAR-MTH1-wt-HiBiT (Jurkat.7 cells)
Experiment: HiBit Lytic Assay (HiBit DC50, MTH1 degraders of Table 2)
Format: cell-based, human
Settings: Jurkat.7 SMARTCAR-MTH1-wt-HiBiT cells, compound treatment time 4 hr, 11-point half log dose response
In short: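 Jurkat.7 cells expressing SMARTCAR-MTH1-wt-HiBiT were treated at 37° C with 11-point half-log dilutions (top final 1000 nM or 833 nM, duplicates, 0.1% DMSO). Remaining HiBiT-tagged protein was read by Nano-Glo HiBiT lytic luminescence, normalized to media-only and DMSO controls.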

Row | SMILES | DC50 [nM]
1 | CNC(=O)c1cnc2cc(OC)c(NCCCCCCCCCCNC(=O)COc3cccc4c3C(=O)N(C3CCC(=O)NC3=O)C4=O)cc2c1Nc1ccccc1 (centres unmarked) [Compound 454, 6-((10-(2-((2-(2,6-dioxopiperidin-3-yl)-1,3-dioxoisoindolin-4-yl)oxy)acetamido)decyl)amino)-7-methoxy-N-methyl-4-(phenylamino)quinoline-3-carboxamide] | < 100
2 | CNC(=O)c1cnc2ccc(-c3ccc(C(=O)NCCCCNC(=O)CN(C)c4cccc5c4C(=O)N(C4CCC(=O)NC4=O)C5=O)cc3)cc2c1Nc1ccccc1 (centres unmarked) [Compound 471, 6-(4-((4-(2-((2-(2,6-dioxopiperidin-3-yl)-1,3-dioxoisoindolin-4-yl)(methyl)amino)acetamido)butyl)carbamoyl)phenyl)-N-methyl-4-(phenylamino)quinoline-3-carboxamide] | < 100
3 | CNc1c(C(=O)NC2CC2)cnc2cc(F)c(-c3ccc(C(=O)NCCCCn4cc(CNc5cccc6c5C(=O)N(C5CCC(=O)NC5=O)C6=O)nn4)c(F)c3)cc12 (centres unmarked) [Compound 411, N-cyclopropyl-6-[4-[4-[4-[[[2-(2,6-dioxo-3-piperidyl)-1,3-dioxo-isoindolin-4-yl]amino]methyl]triazol-1-yl]butylcarbamoyl]-3-fluoro-phenyl]-7-fluoro-4-(methylamino)quinoline-3-carboxamide] | < 100
4 | CNC(=O)c1cnc2ccc(-c3ccc(C(=O)NCCCC(=O)N4CCN(c5cccc6c5C(=O)N(C5CCC(=O)NC5=O)C6=O)CC4)cc3)cc2c1Nc1ccccc1 (centres unmarked) [Compound 343, 4-anilino-6-[4-[[4-[4-[2-(2,6-dioxo-3-piperidyl)-1,3-dioxo-isoindolin-4-yl]piperazin-1-yl]-4-oxo-butyl]carbamoyl]phenyl]-N-methyl-quinoline-3-carboxamide] | < 100
5 | CNC(=O)c1cnc2ccc(-c3ccc(NCCCCNC(=O)CNc4cccc5c4C(=O)N(C4CCC(=O)NC4=O)C5=O)nc3)cc2c1Nc1ccccc1 (centres unmarked) [Compound 365, 4-anilino-6-[6-[4-[[2-[[2-(2,6-dioxo-3-piperidyl)-1,3-dioxo-isoindolin-4-yl]amino]acetyl]amino]butylamino]-3-pyridyl]-N-methyl-quinoline-3-carboxamide] | < 100
6 | CNC(=O)c1cnc2ccc(NCCCCCCCCCCNC(=O)[C@H](C)Nc3cccc4c3C(=O)N(C3CCC(=O)NC3=O)C4=O)cc2c1Nc1ccccc1 (stereo partly drawn) [Compound 445, 6-((10-((2S)-2((2-(2,6-dioxopiperidin-3-yl)-1,3-dioxoisoindolin-4-yl)amino)propanamido)decyl)amino)-N-methyl-4-(phenylamino)quinoline-3-carboxamide] | < 100
7 | COc1cc2ncc(C(=O)NC3CC3)c(Nc3ccccc3)c2cc1-c1ccc(C(=O)NCCCCn2cc(CNc3cccc4c3C(=O)N(C3CCC(=O)NC3=O)C4=O)nn2)nc1 (centres unmarked) [Compound 396, 4-anilino-N-cyclopropyl-6-[6-[4-[4-[[[2-(2,6-dioxo-3-piperidyl)-1,3-dioxo-isoindolin-4-yl]amino]methyl]triazol-1-yl]butylcarbamoyl]-3-pyridyl]-7-methoxy-quinoline-3-carboxamide] | < 100
8 | CNC(=O)c1cnc2ccc(C(=O)NCCCCCCCCCNC(=O)COc3cccc4c3C(=O)N(C3CCC(=O)NC3=O)C4=O)cc2c1Nc1ccccc1 (centres unmarked) [Compound 446, N6-(9-(2-((2-(2,6-dioxopiperidin-3-yl)-1,3-dioxoisoindolin-4-yl)oxy)acetamido)nonyl)-N3-methyl-4-(phenylamino)quinoline-3,6-dicarboxamide] | < 100
9 | CNC(=O)c1cnc2ccc(-c3ccc(C(=O)NCCCCNC(=O)CN(C)c4cccc5c4C(=O)N(C4CCC(=O)NC4=O)C5=O)cc3)cc2c1Nc1ccccc1 (centres unmarked) [Compound 474, 6-(4-((4-(2-((2-(2,6-dioxopiperidin-3-yl)-1,3-dioxoisoindolin-4-yl)(methyl)amino)acetamido)butyl)carbamoyl)phenyl)-N-methyl-4-(phenylamino)quinoline-3-carboxamide] | < 100

Further lines, results first:

Row | DC50 [nM] | SMILES
10 | < 100 | NC(=O)c1cnc2ccc(NC(=O)CCCCCCCCCNC(=O)COc3cccc4c3C(=O)N(C3CCC(=O)NC3=O)C4=O)cc2c1Nc1ccccc1 (centres unmarked) [Compound 467, 6-(10-(2-((2-(2,6-dioxopiperidin-3-yl)-1,3-dioxoisoindolin-4-yl)oxy)acetamido)decanamido)-4-(phenylamino)quinoline-3-carboxamide]
11 | < 100 | CNC(=O)c1cnc2cc(OC)c(-c3ccc(C(=O)NCCCCn4cc(CNc5cccc6c5C(=O)N(C5CCC(=O)NC5=O)C6=O)nn4)cn3)cc2c1Nc1ccccc1 (centres unmarked) [Compound 376, 6-(5-((4-(4-(((2-(2,6-dioxopiperidin-3-yl)-1,3-dioxoisoindolin-4-yl)amino)methyl)-1H-1,2,3-triazol-1-yl)butyl)carbamoyl)pyridin-2-yl)-7-methoxy-N-methyl-4-(phenylamino)quinoline-3-carboxamide]
12 | < 100 | CNC(=O)c1cnc2ccc(NCCCCCCCCCCNC(=O)[C@@H](C)Nc3cccc4c3C(=O)N(C3CCC(=O)NC3=O)C4=O)cc2c1Nc1ccccc1 (stereo partly drawn) [Compound 443, 6-((10-((2R)-2-((2-(2,6-dioxopiperidin-3-yl)-1,3-dioxoisoindolin-4-yl)amino)propanamido)decyl)amino)-N-methyl-4-(phenylamino)quinoline-3-carboxamide]
13 | < 100 | NC(=O)c1cnc2ccc(-c3ccc(C(=O)NCCCCNC(=O)COc4cccc5c4C(=O)N(C4CCC(=O)NC4=O)C5=O)cc3)cc2c1Nc1ccccc1 (centres unmarked) [Compound 300, 4-anilino-6-[4-[4-[[2-[2-(2,6-dioxo-3-piperidyl)-1,3-dioxo-isoindolin-4-yl]oxyacetyl]amino]butylcarbamoyl]phenyl]quinoline-3-carboxamide]
14 | < 100 | CNC(=O)c1cnc2ccc(CC(=O)NCCCCCCCCNC(=O)COc3cccc4c3C(=O)N(C3CCC(=O)NC3=O)C4=O)cc2c1Nc1ccccc1 (centres unmarked) [Compound 459, 6-(2-((8-(2-((2-(2,6-dioxopiperidin-3-yl)-1,3-dioxoisoindolin-4-yl)oxy)acetamido)octyl)amino)-2-oxoethyl)-N-methyl-4-(phenylamino)quinoline-3-carboxamide]
